Literature values as cited in patent US20260345798A1, “COMPOUNDS AND METHODS OF USE THEREOF” (Virginia Commonwealth University, priority 2023, published 2026).

Assays:
[1] = test system: non-transformed normal or transformed cells; conditions: other cancer contexts; cited from earlier work
cancer invasion = conditions: in vitro and in vivo, multiple experimental animal models; cited from earlier work
MDA-9/Syntenin = target: T1, MDA-9/Syntenin (Homo sapiens, UniProt O00560); conditions: literature comparison; cited from earlier work
T1 sequence (O00560 1-298): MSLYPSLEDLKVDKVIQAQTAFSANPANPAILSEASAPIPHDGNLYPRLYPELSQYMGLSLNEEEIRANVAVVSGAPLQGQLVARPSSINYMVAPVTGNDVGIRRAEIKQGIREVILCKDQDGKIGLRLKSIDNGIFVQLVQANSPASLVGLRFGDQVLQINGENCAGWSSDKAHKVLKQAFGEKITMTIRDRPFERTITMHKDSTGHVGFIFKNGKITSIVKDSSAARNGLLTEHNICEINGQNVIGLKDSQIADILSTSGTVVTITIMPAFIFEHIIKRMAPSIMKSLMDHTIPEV

[2] = test system: PDZ domains in other sequence-similar proteins; conditions: cited from earlier work
T cells = conditions: cited from earlier work
[3] = test system: second PDZ2 domain of MDA-9/Syntenin; conditions: cited from earlier work

Cc1cc(NC(=O)c2nc3nc4c(c(=O)n3[nH]2)CCC4)c(C)cc1NC(=O)CCc1nnc(-c2ccccc2)o1 [PDZ1i]
detrimental effect on cells [1]: not detrimental | blocking of cancer invasion (cancer invasion): effectively blocks cancer invasion | Kd (MDA-9/Syntenin): 23 µM | binding to PDZ domains in other sequence-similar proteins [2]: without appreciable binding | T cell infiltration into the tumor environment (T cells): causes T cell infiltration into the tumor environment | binding to PDZ2 domain of MDA-9/Syntenin [3]: without appreciable binding
